In patent publication US20230011869A1 (Hoffmann-La Roche Inc., priority 2018, published 2023) one finds IC90 data, which are given here for 18 molecules.

Structures are written as SMILES. Counter-ions that a name gives are not always drawn. Like-named read-outs stand apart in the source and are kept apart here.

The test system of the test is Acinetobacter baumannii ATCC17978. Put plainly: Antimicrobial susceptibility testing: 90% growth inhibitory concentration (IC90) determination, Iso-Sensitest broth. Type of test: cell-based. In outline: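 A. baumannii ATCC17978 grown in Iso-Sensitest broth across 10 compound concentrations at 35±2 °C.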
Where [1] appears, read: Acinetobacter baumannii, ATCC17978, 16 h, read-out: ATCC17978 IC90, 90% growth inhibitory concentration, Acinetobacter baumannii ATCC17978, Iso-Sensitest broth, OD 600 nm over 16 h.
[2] abbreviates: read-out: ATCC17978 IC90, 90% growth inhibitory concentration, Acinetobacter baumannii ATCC17978, Iso-Sensitest broth, OD 600 nm over 16 h.

For `CNCC(=O)N1CCN(C(=O)c2ccc(Nc3nccn4c(-c5ccc(OC(F)F)cc5)cnc34)cc2C)CC1` [Example 320, 1-[4-[4-[[3-[4-(difluoromethoxy)phenyl]imi-dazo[1,2-a]pyrazin-8-yl]amino]-2-methylbenzoyl]piperazin-1-yl]-2-(methylamino)ethanone; hy-drochloride], under setting [1], the IC90 turned out to be 280 nM.
On the same count and under the same terms, the result for `CNCCNC(=O)C1CCN(C(=O)c2ccc(Nc3nccn4c(-c5ccc(OC)c(F)c5F)cnc34)cc2C)CC1` [Example 321, 1-[4-[[3-(2,3-difluoro-4-methoxyphenyl)imidazo[1,2-a]pyrazin-8-yl]amino]-2-methylbenzoyl]-N-[2-(methylamino)ethyl]piperidine-4-carboxamide; hydrochloride] reads 280 nM.
For the molecule `CNCC(=O)N1CCN(C(=O)c2ccc(Nc3nccn4c(-c5ccc(OC)c(Cl)c5)cnc34)cc2C)CC1` [Example 322, 1-[4-[4-[[3-(3-chloro-4-methoxyphenyl)imidazo[1,2-a]pyrazin-8-yl]amino]-2-methylbenzoyl]piperazin-1-yl]-2-(methylamino)ethanone; hy-drochloride], the IC90 (90% growth inhibitory concentration, Acinetobacter baumannii ATCC17978, Iso-Sensitest broth, OD 600 nm over 16 h, read-out: ATCC17978 IC90) was found to be 280 nM.
On to `Cc1cc(Nc2nccn3c(-c4ccc(OC(F)F)cc4)cnc23)ccc1C(=O)N1CCC(C(=O)N2CCNC(C)(C)C2)CC1` [Example 323, [4-[[3-[4-(difluoromethoxy)phenyl]imi-dazo[1,2-a]pyrazin-8-yl]amino]-2-methylphenyl]-[4-(3,3-dimethylpiperazin-1-carbonyl)piperidin-1-yl]methanone; hydrochloride], for which the IC90 under setting [1] amounted to 300 nM.
For `Cc1cc(Nc2nccn3c(-c4ccc(OC(F)F)cc4)cnc23)ccc1C(=O)N1CCN(C(=O)C2(F)CCNCC2)CC1` [Example 324, [4-[[3-[4-(difluoromethoxy)phenyl]imi-dazo[1,2-a]pyrazin-8-yl]amino]-2-methylphenyl]-[4-(4-fluoropiperidine-4-carbonyl)piperazin-1-yl]methanone], the IC90 under setting [1] was found to be 330 nM.
With `Cc1cc(Nc2nccn3c(-c4ccc(OC(F)F)cc4)cnc23)ccc1C(=O)N1CCC(C(=O)N2CCCNCC2)CC1` [Example 325, [4-(1,4-diazepane-1-carbonyl)piperidin-1-yl]-[4-[[3-[4-(difluoromethoxy)phenyl]imi-dazo[1,2-a]pyrazin-8-yl]amino]-2-methylphenyl]methanone; hy-drochloride], the IC90 under setting [1] was 340 nM.
`Cc1cc(Nc2nccn3c(-c4ccc(OC(F)F)cc4)cnc23)ccc1C(=O)N1CCC(C(=O)N2C[C@@H](O)[C@@H](O)[C@@H](O)C2)CC1` [Example 326, [4-[[3-[4-(difluoromethoxy)phenyl]imi-dazo[1,2-a]pyrazin-8-yl]amino]-2-methylphenyl]-[4-[rac-(3R,5S)-3,4,5-trihydroxypiperidine-1-carbonyl]piperidin-1-yl]methanone]: the IC90 under setting [1] was determined as 360 nM.
Same read-out and setting: with `Cc1cc(Nc2nccn3c(-c4ccc(OC(F)F)cc4)cnc23)ccc1C(=O)N1CCN(C(=O)C[C@H](C)N)CC1` [Example 327, (3S)-3-amino-1-[4-[4-[[3-[4-(difluoromethoxy)phenyl]imi-dazo[1,2-a]pyrazin-8-yl]amino]-2-methylbenzoyl]piperazin-1-yl]butan-1-one; hydrochloride] the figure was 380 nM.
For the molecule `COc1ccc(-c2cnc3c(Nc4ccc(C(=O)N5CCC(C(=O)NCC6CNC6)CC5)c(C)c4)nccn23)cc1F` [Example 328, N-(azetidin-3-ylmethyl)-1-[4-[[3-(3-fluoro-4-methoxyphenyl)imidazo[1,2-a]pyrazin-8-yl]amino]-2-methylbenzoyl]piperidine-4-carboxamide; hydrochloride], the IC90 under setting [1] stood at 390 nM.
For the molecule `Cc1cc(Nc2nccn3c(-c4ccc(OC(F)F)cc4)cnc23)ccc1C(=O)N1CCN(C(=O)CC(C)(C)N)CC1` [Example 329, 3-amino-1-[4-[4-[[3-[4-(difluoromethoxy)phenyl]imi-dazo[1.2-a]pyrazin-8-yl]amino]-2-methylbenzoyl]piperazin-1-yl]-3-methylbutan-1-one; hydrochloride], the IC90 under setting [1] turned out to be 400 nM.
On to `CCc1cc(Nc2nccn3c(-c4ccc(OC)c(F)c4)cnc23)ccc1C(=O)N1CCC(C(=O)NCCNC)CC1` [Example 330, 1-[2-ethyl-4-[[3-(3-fluoro-4-methoxyphenyl)imidazo[1,2-a]pyrazin-8-yl]amino]benzoyl]-N-[2-(methylamino)ethyl]piperidine-4-carboxamide; hydrochloride], for which the IC90 under setting [1] came to 400 nM.
Turning to `CNCC(=O)N1CCN(C(=O)c2ccc(Nc3nccn4c(-c5ccc(OC(F)F)cc5)cnc34)cc2C)CC1` [Example 331, 1-[4-[4-[[3-[4-(difluoromethoxy)phenyl]imi-dazo[1,2-a]pyrazin-8-yl]amino]-2-methylbenzoyl]piperazin-1-yl]-2-(methylamino)ethanone], the IC90 under setting [2] was found to be 410 nM.
Turning to `CNCCC(=O)N1CCN(C(=O)c2ccc(Nc3nccn4c(-c5ccc(OC(F)F)cc5)cnc34)cc2C)CC1` [Example 332, 1-[4-[4-[[3-[4-(difluoromethoxy)phenyl]imi-dazo[1,2-a]pyrazin-8-yl]amino]-2-methylbenzoyl]piperazin-1-yl]-3-(methylamino)propan-1-one; hydrochloride], the IC90 under setting [1] was found to be 410 nM.
Regarding `Cc1cc(Nc2nccn3c(-c4ccc(OC(F)F)cc4)cnc23)ccc1C(=O)N1CCN(C(=O)CNC(=N)N)CC1` [Example 333, 1-[2-[4-[4-[[3-[4-(difluoromethoxy)phenyl]imi-dazo[1,2-a]pyrazin-8-yl]amino]-2-methylbenzoyl]piperazin-1-yl]-2-oxoethyl]guanidine], the IC90 under setting [2] turned out to be 410 nM.
With `CN[C@H](C)C(=O)N1CCN(C(=O)c2ccc(Nc3nccn4c(-c5ccc(OC(F)F)cc5)cnc34)cc2C)CC1` [Example 334, (2R)-1-[4-[4-[[3-[4-(difluoromethoxy)phenyl]imi-dazo[1,2-a]pyrazin-8-yl]amino]-2-methylbenzoyl]piperazin-1-yl]-2-(methylamino)propan-1-one; hydrochloride], under setting [1], the IC90 came to 430 nM.
Same read-out and setting: with `Cc1cc(Nc2nccn3c(-c4ccc(OC(F)F)cc4)cnc23)ccc1C(=O)N1CCN(C(=O)C2CNC2)CC1` [Example 335, [4-(azetidine-3-carbonyl)piperazin-1-yl]-[4-[[3-[4-(difluoromethoxy)phenyl]imi-dazo[1,2-a]pyrazin-8-yl]amino]-2-methylphenyl]methanone; hy-drochloride] the figure was 450 nM; with `Cc1cc(Nc2nccn3c(-c4ccc(OC(F)F)cc4)cnc23)ccc1C(=O)N1CCN(C(=O)C[C@@H]2CCCN2)CC1` [Example 336, 1-[4-[4-[[3-[4-(difluoromethoxy)phenyl]imi-dazo[1,2-a]pyrazin-8-yl]amino]-2-methylbenzoyl]piperazin-1-yl]-2-[(2S)-pyrrolidin-2-yl]ethanone], 460 nM.
With `Cc1cc(Nc2nccn3c(-c4ccc(OC(F)F)cc4)cnc23)ccc1C(=O)N1CCN(C(=O)c2ccc(CN3CCNCC3)cc2)CC1` [Example 337, [4-[4-[[3-[4-(difluoromethoxy)phenyl]imi-dazo[1,2-a]pyrazin-8-yl]amino]-2-methylbenzoyl]piperazin-1-yl]-[4-(piperazin-1-ylmethyl)phenyl]methanone; hydrochloride], the IC90 under setting [1] came to 470 nM.
